Data from publication PMC12209991 (Clinical Pharmacology in Drug Development, 2025).
Read-outs that look alike come from different tables or passages of the source.

Legend:
[1] = Food effect (high-fat breakfast) on RBN-3143 pharmacokinetics, cross-over; assay type: in vivo, human; details: single 500 mg oral dose; for Tmax / AUC(0-inf) / AUC(0-t) / Cmax: human, plasma, po, 500 mg; for Tmax: read-out: Median Tmax
Method: (§1) Analytes were separated by HPLC on a Waters Atlantis T3 analytical column using a gradient mobile phase (mobile phase A: 10% acetonitrile, 90% water, 10 mM ammonium acetate, 0.3% formic acid; mobile phase B: 90% acetonitrile, 10% water, 10 mM ammonium acetate, 0.3% formic acid) run at 0.4 mL/min with initial mobile phase B concentration of 30%.

[2] = Single ascending dose (SAD) pharmacokinetics in healthy volunteers; assay type: in vivo, human; details: for AUC(0-inf) / Cmax / Tmax: human, plasma, po
Method: as §1

CC(=O)N1CCC(COc2cc(F)c3c(=O)[nH]c(CSC4CCOCC4)nc3c2)CC1 [RBN‐3143]
Tmax ([1]; after a high-fat meal): 4 h
Tmax ([1]; fasted state): 2 h
AUC(0-inf) ([1]; fasted, N=13, linear mixed-effects model, read-out: AUCinf, GLSM): 13300 ng·h/mL
AUC(0-t) ([1]; fasted, N=13, linear mixed-effects model, read-out: AUClast, GLSM): 12900 ng·h/mL
Cmax ([1]; fasted, N=13, linear mixed-effects model, read-out: Cmax, GLSM): 1550 ng/mL
AUC(0-inf) ([1]; fasted, N=13, read-out: AUCinf, geometric mean (Geo CV%)): 13300 ng·h/mL
AUC(0-inf) ([1]; fasted, N=13, read-out: AUCinf, mean (SD)): 13800 ng·h/mL
AUC(0-t) ([1]; fasted, N=13, read-out: AUClast, geometric mean (Geo CV%)): 12800 ng·h/mL
AUC(0-t) ([1]; fasted, N=13, read-out: AUClast, mean (SD)): 13300 ng·h/mL
Cmax ([1]; fasted, N=13, read-out: Cmax, geometric mean (Geo CV%)): 1530 ng/mL
Cmax ([1]; fasted, N=13, read-out: Cmax, mean (SD)): 1600 ng/mL
AUC(0-inf) ([1]; fed (high-fat breakfast), N=13, linear mixed-effects model, read-out: AUCinf, GLSM): 18900 ng·h/mL
AUC(0-t) ([1]; fed (high-fat breakfast), N=13, linear mixed-effects model, read-out: AUClast, GLSM): 18700 ng·h/mL
Cmax ([1]; fed (high-fat breakfast), N=13, linear mixed-effects model, read-out: Cmax, GLSM): 2690 ng/mL
AUC(0-inf) ([1]; fed (high-fat breakfast), N=13, read-out: AUCinf, geometric mean (Geo CV%)): 18800 ng·h/mL
AUC(0-inf) ([1]; fed (high-fat breakfast), N=13, read-out: AUCinf, mean (SD)): 19600 ng·h/mL
AUC(0-t) ([1]; fed (high-fat breakfast), N=13, read-out: AUClast, geometric mean (Geo CV%)): 18600 ng·h/mL
AUC(0-t) ([1]; fed (high-fat breakfast), N=13, read-out: AUClast, mean (SD)): 19400 ng·h/mL
Cmax ([1]; fed (high-fat breakfast), N=13, read-out: Cmax, geometric mean (Geo CV%)): 2660 ng/mL
Cmax ([1]; fed (high-fat breakfast), N=13, read-out: Cmax, mean (SD)): 2780 ng/mL
delay of oral absorption with food [1]: about 2 hours
RBN-3143 dose excreted in urine unchanged ([2]; SAD and MAD cohorts, pooled urine): Approximately 16%
AUC(0-inf) ([2]; 25 mg, single oral dose 25 mg, read-out: AUCinf, geometric mean (Geo CV%)): 734 ng·h/mL
AUC(0-inf) ([2]; 25 mg, single oral dose 25 mg, read-out: AUCinf, mean (SD)): 752 ng·h/mL
Cmax ([2]; 25 mg, single oral dose 25 mg, read-out: Cmax, geometric mean (Geo CV%)): 134 ng/mL
Cmax ([2]; 25 mg, single oral dose 25 mg, read-out: Cmax, mean (SD)): 138 ng/mL
Tmax ([2]; 25 mg, single oral dose 25 mg, read-out: Tmax, median [min-max]): 2 h
AUC(0-inf) ([2]; 50 mg, single oral dose 50 mg, read-out: AUCinf, geometric mean (Geo CV%)): 1540 ng·h/mL
AUC(0-inf) ([2]; 50 mg, single oral dose 50 mg, read-out: AUCinf, mean (SD)): 1560 ng·h/mL
Cmax ([2]; 50 mg, single oral dose 50 mg, read-out: Cmax, geometric mean (Geo CV%)): 259 ng/mL
Cmax ([2]; 50 mg, single oral dose 50 mg, read-out: Cmax, mean (SD)): 269 ng/mL
Tmax ([2]; 50 mg, single oral dose 50 mg, read-out: Tmax, median [min-max]): 2 h
AUC(0-inf) ([2]; 100 mg, single oral dose 100 mg, read-out: AUCinf, geometric mean (Geo CV%)): 3540 ng·h/mL
AUC(0-inf) ([2]; 100 mg, single oral dose 100 mg, read-out: AUCinf, mean (SD)): 3610 ng·h/mL
Cmax ([2]; 100 mg, single oral dose 100 mg, read-out: Cmax, geometric mean (Geo CV%)): 544 ng/mL
Cmax ([2]; 100 mg, single oral dose 100 mg, read-out: Cmax, mean (SD)): 556 ng/mL
Tmax ([2]; 100 mg, single oral dose 100 mg, read-out: Tmax, median [min-max]): 1.75 h
AUC(0-inf) ([2]; 150 mg, single oral dose 150 mg, read-out: AUCinf, geometric mean (Geo CV%)): 5000 ng·h/mL
AUC(0-inf) ([2]; 150 mg, single oral dose 150 mg, read-out: AUCinf, mean (SD)): 5050 ng·h/mL
Cmax ([2]; 150 mg, single oral dose 150 mg, read-out: Cmax, geometric mean (Geo CV%)): 653 ng/mL
Cmax ([2]; 150 mg, single oral dose 150 mg, read-out: Cmax, mean (SD)): 668 ng/mL
Tmax ([2]; 150 mg, single oral dose 150 mg, read-out: Tmax, median [min-max]): 2 h
AUC(0-inf) ([2]; 300 mg, single oral dose 300 mg, read-out: AUCinf, geometric mean (Geo CV%)): 6230 ng·h/mL
AUC(0-inf) ([2]; 300 mg, single oral dose 300 mg, read-out: AUCinf, mean (SD)): 6440 ng·h/mL
Cmax ([2]; 300 mg, single oral dose 300 mg, read-out: Cmax, geometric mean (Geo CV%)): 747 ng/mL
Cmax ([2]; 300 mg, single oral dose 300 mg, read-out: Cmax, mean (SD)): 771 ng/mL
Tmax ([2]; 300 mg, single oral dose 300 mg, read-out: Tmax, median [min-max]): 2 h
AUC(0-inf) ([2]; 600 mg, single oral dose 600 mg, read-out: AUCinf, geometric mean (Geo CV%)): 11700 ng·h/mL
AUC(0-inf) ([2]; 600 mg, single oral dose 600 mg, read-out: AUCinf, mean (SD)): 11900 ng·h/mL
Cmax ([2]; 600 mg, single oral dose 600 mg, read-out: Cmax, geometric mean (Geo CV%)): 1200 ng/mL
Cmax ([2]; 600 mg, single oral dose 600 mg, read-out: Cmax, mean (SD)): 1240 ng/mL
Tmax ([2]; 600 mg, single oral dose 600 mg, read-out: Tmax, median [min-max]): 1.75 h
AUC(0-inf) ([2]; 1000 mg, single oral dose 1000 mg, read-out: AUCinf, geometric mean (Geo CV%)): 16500 ng·h/mL
AUC(0-inf) ([2]; 1000 mg, single oral dose 1000 mg, read-out: AUCinf, mean (SD)): 17700 ng·h/mL
Cmax ([2]; 1000 mg, single oral dose 1000 mg, read-out: Cmax, geometric mean (Geo CV%)): 1460 ng/mL
Cmax ([2]; 1000 mg, single oral dose 1000 mg, read-out: Cmax, mean (SD)): 1500 ng/mL
Tmax ([2]; 1000 mg, single oral dose 1000 mg, read-out: Tmax, median [min-max]): 2.02 h
Tmax ([2]; SAD, oral, across doses 25-1000 mg, read-out: Tmax (time of peak concentrations)): 2 h
